In ChEMBL document CHEMBL1201862, “PubChem BioAssay data set” (2004):
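Briefly, cells in 96-well plates were exposed to five compound concentrations for 48 h, and endpoints were estimated by linear interpolation. The concentration for 50% growth inhibition is given as GI50.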 The source made the active and inactive calls. Cut-off read from the data, not from the text of the source: active = GI50 up to about 1.1 µM and inactive = higher.

Key:
Test in all cases: NCI tumour cell line growth inhibition, 48 h
U-251 = test system: U-251
OVCAR-5 = test system: OVCAR-5
Malme-3M = test system: Malme-3M
SNB-75 = test system: SNB-75
HCT-116 = test system: HCT-116
MDA-MB-231 = test system: MDA-MB-231
OVCAR-4 = test system: OVCAR-4
DU-145 = test system: DU-145
NCI-H522 = test system: NCI-H522
OVCAR-3 = test system: OVCAR-3
SW-620 = test system: SW-620
NCI-H23 = test system: NCI-H23
SK-OV-3 = test system: SK-OV-3
SF-268 = test system: SF-268
SN12C = test system: SN12C
MOLT-4 = test system: MOLT-4
Hs-578T = test system: Hs-578T
M14 = test system: M14
NCI-H460 = test system: NCI-H460
HCC 2998 = test system: HCC 2998

Measured: GI50

Oc1c(Br)cc(CN(Cc2cc(Br)c(O)c(Br)c2)C2CCCCC2)cc1Br
inactive: U-251 > 100 µM | OVCAR-5 > 100 µM | Malme-3M > 100 µM | SNB-75 > 100 µM | HCT-116 > 100 µM | MDA-MB-231 > 100 µM | OVCAR-4 > 100 µM | DU-145 > 100 µM | NCI-H522 > 100 µM | OVCAR-3 > 100 µM | SW-620 > 100 µM | NCI-H23 > 100 µM | SK-OV-3 > 100 µM | SF-268 > 100 µM | SN12C > 100 µM | MOLT-4 > 100 µM | Hs-578T > 100 µM | M14 > 100 µM

O=C(O)/C=C/C(=O)Nc1nc[nH]n1
inactive: U-251 > 100 µM | OVCAR-5 > 100 µM | NCI-H460 > 100 µM | SNB-75 > 100 µM | HCT-116 > 100 µM | MDA-MB-231 > 100 µM | OVCAR-4 > 100 µM | DU-145 > 100 µM | NCI-H522 > 100 µM | OVCAR-3 > 100 µM | SW-620 > 100 µM | NCI-H23 > 100 µM | HCC 2998 > 100 µM | SK-OV-3 > 100 µM | SF-268 > 100 µM | SN12C > 100 µM | MOLT-4 62.5 µM | Hs-578T > 100 µM | M14 > 100 µM

O=C(O)CNC(=O)c1ccc2cc(C(=O)N3CC(CCl)c4ccc([N+](=O)[O-])cc43)[nH]c2c1 (configuration not stated)
inactive: U-251 > 100 µM | OVCAR-5 > 100 µM | NCI-H460 > 100 µM | SNB-75 > 100 µM | HCT-116 > 100 µM | MDA-MB-231 > 100 µM | OVCAR-4 > 100 µM | DU-145 > 100 µM | NCI-H522 > 100 µM | OVCAR-3 > 100 µM | SW-620 > 100 µM | NCI-H23 > 100 µM | SK-OV-3 > 100 µM | SF-268 > 100 µM | SN12C > 100 µM | MOLT-4 > 100 µM | Hs-578T > 100 µM | M14 > 100 µM

CCCCCCSC[C@H](OC(C)=O)[C@@H](OC(C)=O)[C@@H](OC(C)=O)[C@@H](COC(C)=O)OC(C)=O
inactive: U-251 > 100 µM | OVCAR-5 > 100 µM | NCI-H460 > 100 µM | Malme-3M > 100 µM | SNB-75 > 100 µM | HCT-116 49.9 µM | MDA-MB-231 > 100 µM | OVCAR-4 > 100 µM | DU-145 > 100 µM | OVCAR-3 80.9 µM | SW-620 > 100 µM | NCI-H23 > 100 µM | HCC 2998 > 100 µM | SK-OV-3 > 100 µM | SF-268 > 100 µM | SN12C > 100 µM | MOLT-4 26.9 µM | Hs-578T > 100 µM | M14 89.7 µM

CC(=C(C(N)=O)C(N)=O)C1C=C(c2cccs2)CC(c2ccc(Cl)cc2)=C1O (configuration not stated)
inactive: U-251 35.6 µM | OVCAR-5 > 100 µM | NCI-H460 69 µM | SNB-75 90.6 µM | HCT-116 8.85 µM | MDA-MB-231 > 100 µM | OVCAR-4 5.51 µM | DU-145 63.5 µM | NCI-H522 30.3 µM | OVCAR-3 22.3 µM | SW-620 82.8 µM | NCI-H23 > 100 µM | HCC 2998 34 µM | SK-OV-3 > 100 µM | SF-268 > 100 µM | SN12C 32 µM | MOLT-4 21.9 µM | Hs-578T > 100 µM | M14 42.5 µM

CCCCOC(=O)C(=O)C(CC(C(=O)Cc1ccccc1)c1ccccc1)C(=O)C=C(C)C (configuration not stated)
inactive: U-251 > 100 µM | OVCAR-5 > 100 µM | NCI-H460 > 100 µM | SNB-75 > 100 µM | HCT-116 > 100 µM | MDA-MB-231 > 100 µM | OVCAR-4 > 100 µM | DU-145 > 100 µM | NCI-H522 > 100 µM | OVCAR-3 > 100 µM | SW-620 > 100 µM | NCI-H23 > 100 µM | HCC 2998 > 100 µM | SK-OV-3 > 100 µM | SF-268 > 100 µM | SN12C > 100 µM | MOLT-4 83.9 µM | Hs-578T > 100 µM | M14 > 100 µM

CCOC(=O)/C=C(/C(=O)OCC)n1cc(C)c(=O)n(Cc2cn(CCCCOC(C)=O)nn2)c1=O
inactive: U-251 18.5 µM | OVCAR-5 18.1 µM | NCI-H460 10.7 µM | SNB-75 16.3 µM | HCT-116 22.7 µM | MDA-MB-231 27.6 µM | OVCAR-4 19.7 µM | DU-145 34.4 µM | NCI-H522 1.88 µM | OVCAR-3 14.7 µM | SW-620 3.03 µM | NCI-H23 16.5 µM | HCC 2998 18.3 µM | SK-OV-3 > 100 µM | SF-268 17.1 µM | SN12C 23.6 µM | MOLT-4 5.05 µM | Hs-578T 23.2 µM

COC(=O)NC1=NNC(=O)c2ccccc2N1
inactive: U-251 > 100 µM | OVCAR-5 > 100 µM | NCI-H460 > 100 µM | SNB-75 > 100 µM | HCT-116 > 100 µM | MDA-MB-231 > 100 µM | OVCAR-4 > 100 µM | DU-145 > 100 µM | NCI-H522 > 100 µM | OVCAR-3 > 100 µM | SW-620 > 100 µM | NCI-H23 > 100 µM | HCC 2998 > 100 µM | SK-OV-3 > 100 µM | SF-268 > 100 µM | SN12C > 100 µM | MOLT-4 > 100 µM | Hs-578T > 100 µM | M14 > 100 µM

CCC1c2[nH]c3ccccc3c2C[C@H]2C(=O)NC(CCCCNC(=O)OC(C)(C)C)C(=O)N12 (some centres not stated)
inactive: U-251 38.5 µM | OVCAR-5 68.4 µM | NCI-H460 30.1 µM | Malme-3M 18 µM | SNB-75 15.3 µM | HCT-116 26.1 µM | MDA-MB-231 32.7 µM | OVCAR-4 28.2 µM | DU-145 48.4 µM | NCI-H522 20.7 µM | OVCAR-3 18.4 µM | SW-620 47.2 µM | NCI-H23 25.9 µM | SK-OV-3 55.8 µM | SF-268 45.1 µM | SN12C 27.5 µM | MOLT-4 19.1 µM | Hs-578T 19.7 µM | M14 17.5 µM

O=C(O)c1ccccc1C(=O)OCC1CCCN2CCCCC12 (configuration not stated)
inactive: U-251 > 100 µM | OVCAR-5 > 100 µM | NCI-H460 > 100 µM | Malme-3M > 100 µM | SNB-75 > 100 µM | HCT-116 > 100 µM | MDA-MB-231 > 100 µM | OVCAR-4 > 100 µM | DU-145 > 100 µM | OVCAR-3 > 100 µM | SW-620 > 100 µM | NCI-H23 > 100 µM | HCC 2998 > 100 µM | SK-OV-3 > 100 µM | SF-268 > 100 µM | SN12C > 100 µM | MOLT-4 > 100 µM | Hs-578T > 100 µM | M14 > 100 µM
